Test results reported in PMC3445549, “The Mode of Action of Isocyanide in Three Aquatic Organisms, Balanus amphitrite, Bugula neritina and Danio rerio” (PLoS ONE, 2012).

Target: T1, NADH-ubiquinone oxidoreductase (Amphibalanus amphitrite, UniProt A0A6A4V2F0)
T1 construct: gene NDUFV1; native protein from solubilised cyprid lysate; 50 kD band
Assay: affinity pull-down on Affi-gel […] matrix, SDS-PAGE, UPLC-MS/MS
Type: biochemical
Conditions: isocyanide 2 coupled to matrix via its amine (labelled compound); competed by 0.4 mg/ml free isocyanide 2; cyprid lysate; wash 500 mM NaCl, 1% Triton X100

T1 sequence (A0A6A4V2F0 27-476): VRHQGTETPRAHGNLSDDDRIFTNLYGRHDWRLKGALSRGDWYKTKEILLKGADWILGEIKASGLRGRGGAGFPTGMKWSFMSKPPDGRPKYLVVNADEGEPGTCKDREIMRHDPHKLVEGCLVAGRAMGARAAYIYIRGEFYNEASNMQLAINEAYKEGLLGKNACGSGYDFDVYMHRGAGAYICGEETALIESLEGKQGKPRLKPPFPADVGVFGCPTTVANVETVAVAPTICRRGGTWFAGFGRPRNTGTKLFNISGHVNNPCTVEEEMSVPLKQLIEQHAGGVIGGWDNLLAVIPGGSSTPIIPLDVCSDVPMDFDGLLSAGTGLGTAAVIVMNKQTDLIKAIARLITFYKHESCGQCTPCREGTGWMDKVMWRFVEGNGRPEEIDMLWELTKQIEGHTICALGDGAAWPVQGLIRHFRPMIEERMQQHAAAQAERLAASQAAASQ

With `[C-]#[N+]C(C)(C)CCCCCCCCCN` [compound 2, 10-isocyano-10-methylundecan-1-amine] the “affinity pull-down on Affi-gel 10 matrix, SDS-PAGE, UPLC-MS/MS” value was “NADH-ubiquinone oxidoreductase was specifically identified in this protein band (Table S2)”.
